The text below walks through data of ChEMBL document CHEMBL3046715, “In vivo evaluation of substituted 3-phenyl,7-methoxy-benzopyrans as modified estrogens” (2010).

Holding throughout (format): functional
Experiment [1] deals with Rattus norvegicus. The experiment can be described thus: Estrogen agonistic activity in immature Rattus norvegicus Sprague-Dawley (rat) assessed as gain in uterine weight at 10 mg/kg, po qd for 3 days.
The subject of experiment [2] is Rattus norvegicus. The experiment can be described thus: Estrogen antagonistic activity in immature Rattus norvegicus Sprague-Dawley (rat) assessed as inhibition of ethynylestradiol-induced increase in uterine weight at 10 mg/kg, po qd for 3 days. As to conditions: 72 h.
Experiment [3] relates to Rattus norvegicus. The experiment can be described thus: Estrogen agonistic activity in immature Rattus norvegicus Sprague-Dawley (rat) assessed as uterine weight at 0.02 mg/kg, po qd for 3 days (reference value: 14 +/- 1.3 to 22.23 +/- 1.2 mg).

The structures appear in SMILES notation.

What is called inhibition in vivo is the percentage by which the read-out fell short of the control. On to `COc1ccc(C2COc3cc(OCCCC(C)(C)O)ccc3C2)cc1` (configuration not stated), for which, in the experiment on Rattus norvegicus [1], the Activity stood at 31%. Moreover, the inhibition in vivo at 10 mg/kg in the experiment with Rattus norvegicus [2] stood at 6%.

`CCC(O)(CC)CCCOc1ccc2c(c1)OCC(c1ccc(OC)cc1)C2` (configuration not stated): the Activity in the experiment with Rattus norvegicus [1] is recorded as 48%. The inhibition in vivo at 10 mg/kg with Rattus norvegicus [2] was found to be 3%.

As to `C=C1CC[C@H](O)C/C1=C/C=C1\CCC[C@]2(C)[C@@H]([C@H](C)CCCC(C)C)CC[C@@H]12` [CHOLECALCIFEROL], in the experiment with Rattus norvegicus [1], the Activity was found to be 82%. In the experiment with Rattus norvegicus [2], the inhibition in vivo at 10 mg/kg stood at 39%.

Regarding `C#C[C@]1(O)CC[C@H]2[C@@H]3CCc4cc(O)ccc4[C@H]3CC[C@@]21C` [ETHINYL ESTRADIOL], the Activity with Rattus norvegicus [3] came to 85 mg; in the experiment on Rattus norvegicus [1] it was 480%.

For the compound `COc1ccc2c(c1)OC(C)(C)C(c1ccccc1)C2c1ccc(OCCN2CCCC2)cc1` (configuration not stated) [ORMELOXIFENE], the Activity in the experiment with Rattus norvegicus [1] is listed as 156%. Moreover, the inhibition in vivo at 10 mg/kg in the experiment with Rattus norvegicus [2] was 67%.

Turning to `O=C(c1ccc(OCCN2CCCCC2)cc1)c1c(-c2ccc(O)cc2)sc2cc(O)ccc12` [RALOXIFENE], the Activity with Rattus norvegicus [1] came out at 90%. For the same compound, in the experiment on Rattus norvegicus [2], the inhibition in vivo at 10 mg/kg worked out at 57%.
